Source: patent US20250333398A1, “MONOARYL AND HETARYL SUBSTITUTED INDAZOLES AND BENZIMIDAZOLES AS STING ANTAGONISTS AND THE USE THEREOF AS MEDICAMENT” (Boehringer Ingelheim International GmbH, priority 2024, published 2025)

What follows are compounds tested on T1, wild-type (GRR) human STING cGAMP binding domain (residues 155-341) (assay: Differential Scanning Fluorimetry (DSF), stability of STING protein against thermal denaturation). Conditions: 100 uM compound, 3 uM target protein.
T1 construct: His-TEV-hSTING (WT); TEV protease cleavage site (N); made in house; host or cells: E. coli BL21 DE3
Description: Dye fluorescence is quenched in aqueous environment and increases upon association of the dye with the hydrophobic parts of the unfolding protein. […] The inflection point of the curve represents the “melting” temperature of the protein (Tm) which is calculated numerically using the Boltzmann equation.
Method: The thermal stability of the STING protein was measured using a specific expression construct of the cGAMP binding domain of wild-type (GRR) human STING comprising residues 155-341 and a N-terminal 8x His-tag in assay buffer containing 20 mM Tris, 150 mM NaCl at pH7.5.
The assay uses Hard-Shell®PCR Plates 384-Well CLR/WHT (Catalog #HSP3805, BIO-RAD), Microseal®‘B’ Adhesive Seals for PCR Plates (Catalog #MSB-1001, BIO-RAD) and was run on a CFX384 Real-Time System (Bio-Rad).
A DMSO stock solution of SYPRO orange (SIGMA S5692-500UL) was prepared.
Compound stock solutions (10 mM in DMSO) were diluted 1:2 in DMSO to an intermediate compound concentration of 5 mM and then further diluted 1:40 in assay buffer resulting in a compound concentration of 125 μM and 2.5% DMSO.
Fluorescent dye stock solution (5000×SYPRO Orange) was then mixed with target protein and buffer to a concentration of 15 uM Protein and 25×SYPRO Orange. 2 ul of this protein-dye-mixture was added to 8 ul compound solution. Final volume was 10 uL. 3-6 well positions were used as negative control (protein with 2% DMSO). The plates were prepared for duplicate measurement and centrifuged for 2 min at 1000 g. In the measurement, 160 cycles of 0.5° C. were used (temperature ramp 15 s/cycle, 15° C. to 95° C.).
Final Assay concentrations for compound characterization were as follows:
100 uM compound, 3 uM target protein, 5×SYPRO Orange, 2% DMSO in 10 ul. All dispensing steps were performed using a HamiltonStar pipetting robot (Hamilton).
Dissociation curves were processed in Bio-Rad CFX Manager. Peak type was set to “negative”.
Compound codes for screen were assigned in the plate layout.
Two replicates of TM measurements were averaged, and the standard deviation was calculated. In cases of SD>1.5° C. the measurement was repeated.
The melting point (Tm) obtained for STING protein alone was subtracted from T obtained for protein incubated with ligand to generate ΔTm values.
Protein production and purification: The protein used for the biophysical experiments was a recombinant human STING protein comprising its cytosolic ectodomain. A codon optimized DNA sequence (for expression in Escherichia coli) encoding amino acid residues 155 to 341 (Swiss Prot Q86WV6) of human STING (WT) was synthesized by GeneArt (Regensburg, Germany) and inserted into a pET17b E. coli expression vector. The protein construct encodes an N-terminal 8× His-tag followed by tobacco etch virus protease (TEV) cleavage site and the above STING gene sequence. The resulting protein sequence for the used STING variant is listed below:
For expression of recombinant human STING above construct was transformed into E. coli BL21 DE3 strain and grown in shake flasks in LB-medium at 37° C. Expression was induced by addition of isopropyl β-D-1-thiogalactopyranoside to a final concentration of 1 mM and cultures shaken overnight. Cell pellets were centrifuged and stored at −70° C. until further use. Protein was purified by cell thawing in lysis buffer (20 mM TRIS-HCl, pH 8, 300 mM NaCl, 2 mM mercaptoethanol, 20 mM imidazole, Complete Protease Inhibitor (Roche) and DNase (Roche)), followed by metal affinity purification using Ni-NTA resins and elution buffer consisting of 20 mM TRIS-HCl, pH 8, 300 mM NaCl, 2 mM mercaptoethanol, 300 mM imidazole and size exclusion chromatography in running buffer (20 mM TRIS-HCl, pH 8, 100 mM NaCl, 2 mM DTT). The peak fraction was collected and concentrated to 2.5 mg/mL.
In the case of Cn1nc(-n2cc3c(-c4nc(-c5ccc(P(C)(C)=O)cc5OC(F)(F)F)n(C)c4C4CC4)cccc3n2)cc1C(F)F [Example 2, 4-{5-cyclopropyl-2-[4-(dimethylphosphoryl)-2-(trifluoromethoxy)phenyl]-1-methyl-1H-imidazol-4-yl}-2-[5-(difluoromethyl)-1-methyl-1H-pyrazol-3-yl]-2H-indazole], the “DSF ΔTm (K)” value is reported as 30 K. For COc1nn(C)cc1-n1cc2c(-c3nc(-c4ccc(C(=O)N(C)C)cc4OC(F)(F)F)n(C)c3C3CC3)cccc2n1 [Example 3, 4-{5-cyclopropyl-4-[2-(3-methoxy-1-methyl-1H-pyrazol-4-yl)-2H-indazol-4-yl]-1-methyl-1H-imidazol-2-yl}-N,N-dimethyl-3-(trifluoromethoxy)benzamide], the “DSF ΔTm (K)” value was 26 K. In the case of CCOc1nn(C)cc1-n1cc2c(-c3nc(-c4ccc(C(N)=O)cc4OC(F)(F)F)n(C)c3C3CC3)cccc2n1 [Example 4, 4-{5-cyclopropyl-4-[2-(3-ethoxy-1-methyl-1H-pyrazol-4-yl)-2H-indazol-4-yl]-1-methyl-1H-imidazol-2-yl}-3-(trifluoromethoxy)benzamide], the “DSF ΔTm (K)” value is reported as 30 K. With COc1nn(C2CC2)cc1-n1cc2c(-c3nc(-c4ccc(C(N)=O)cc4OCC(F)F)n(C)c3C3CC3)cccc2n1 [Example 6, 4-{5-cyclopropyl-4-[2-(1-cyclopropyl-3-methoxy-1H-pyrazol-4-yl)-2H-indazol-4-yl]-1-methyl-1H-imidazol-2-yl}-3-(2,2-difluoroethoxy)benzamide] the “DSF ΔTm (K)” value was 28 K. CC[P@](C)(=O)c1ccc(-c2nc(-c3cccc4nn(-c5cc(C(F)F)n(C)n5)cc34)c(C3CC3)n2C)c(OC(F)(F)F)c1 [Example 7, 4-(5-cyclopropyl-2-{4-[(S)-ethyl(methyl)phosphoryl]-2-(trifluoromethoxy)phenyl}-1-methyl-1H-imidazol-4-yl)-2-[5-(difluoromethyl)-1-methyl-1H-pyrazol-3-yl]-2H-indazole] was tested, and the “DSF ΔTm (K)” value was 30 K. In the case of Cn1nc(-n2cc3c(-c4nc(-c5ccc(C(N)=O)cc5OC(F)(F)F)n(C)c4C4CC4)cccc3n2)cc1C(F)(F)F [Example 8, 4-(5-cyclopropyl-1-methyl-4-{2-[1-methyl-5-(trifluoromethyl)-1H-pyrazol-3-yl]-2H-indazol-4-yl}-1H-imidazol-2-yl)-3-(trifluoromethoxy)benzamide], the “DSF ΔTm (K)” value is reported as 32 K. With COc1nn(C2CC2)cc1-n1cc2c(-c3nn(-c4ccc(P(C)(C)=O)cc4C)c(C)c3C(C)C)cccc2n1 [Example 9, 2-(1-cyclopropyl-3-methoxy-1H-pyrazol-4-yl)-4-{1-[4-(dimethylphosphoryl)-2-methylphenyl]-5-methyl-4-(propan-2-yl)-1H-pyrazol-3-yl}-2H-indazole] the “DSF ΔTm (K)” value was 22 K. For CC[P@](C)(=O)c1ccc(-c2nc(-c3cccc4nn(-c5cc(C(F)(F)F)n(C)n5)cc34)c(C3CC3)n2C)c(OC(F)(F)F)c1 [Example 10, 4-(5-cyclopropyl-2-{4-[(S)-ethyl(methyl)phosphoryl]-2-(trifluoromethoxy)phenyl}-1-methyl-1H-imidazol-4-yl)-2-[1-methyl-5-(trifluoromethyl)-1H-pyrazol-3-yl]-2H-indazole], the “DSF ΔTm (K)” value was 30 K. In the case of COc1nn(CC(C)(C)O)cc1-n1cc2c(-c3nc(-c4ccc(C(N)=O)cc4OC(F)(F)F)n(C)c3C3CC3)cccc2n1 [Example 11, 4-(5-cyclopropyl-4-{2-[1-(2-hydroxy-2-methylpropyl)-3-methoxy-1H-pyrazol-4-yl]-2H-indazol-4-yl}-1-methyl-1H-imidazol-2-yl)-3-(trifluoromethoxy)benzamide], the “DSF ΔTm (K)” value is reported as 26 K. In the case of COCc1cc(C(N)=O)ccc1-c1nc(-c2cccc3nn(-c4cn(C5CC5)nc4OC)cc23)c(C2CC2)n1C [Example 12, 4-{5-cyclopropyl-4-[2-(1-cyclopropyl-3-methoxy-1H-pyrazol-4-yl)-2H-indazol-4-yl]-1-methyl-1H-imidazol-2-yl}-3-(methoxymethyl)benzamide], the “DSF ΔTm (K)” value is reported as 25 K. With CC[P@@](C)(=O)c1ccc(-c2nc(-c3cccc4nn(-c5cn(C6CC6)nc5OC)cc34)c(C3CC3)n2C)c(OC(F)(F)F)c1 [Example 13, 4-(5-cyclopropyl-2-{4-[(R)-ethyl(methyl)phosphoryl]-2-(trifluoromethoxy)phenyl}-1-methyl-1H-imidazol-4-yl)-2-(1-cyclopropyl-3-methoxy-1H-pyrazol-4-yl)-2H-indazole] the “DSF ΔTm (K)” value was 27 K. In the case of CC[P@](C)(=O)c1ccc(-c2nc(-c3cccc4nn(-c5cn(C6CC6)nc5OC)cc34)c(C3CC3)n2C)c(OC(F)(F)F)c1 [Example 14, 4-(5-cyclopropyl-2-{4-[(S)-ethyl(methyl)phosphoryl]-2-(trifluoromethoxy)phenyl}-1-methyl-1H-imidazol-4-yl)-2-(1-cyclopropyl-3-methoxy-1H-pyrazol-4-yl)-2H-indazole], the “DSF ΔTm (K)” value is reported as 30 K. COc1nn(C2CC2)cc1-n1cc2c(-c3nc(-c4ccc(C(=O)N(C)C)cc4OC(F)(F)F)n(C)c3C3CC3)cccc2n1 [Example 15, 4-{5-cyclopropyl-4-[2-(1-cyclopropyl-3-methoxy-1H-pyrazol-4-yl)-2H-indazol-4-yl]-1-methyl-1H-imidazol-2-yl}-N,N-dimethyl-3-(trifluoromethoxy)benzamide] was tested, and the “DSF ΔTm (K)” value was 25 K. With COc1nn(C2CC2)cc1-n1cc2c(-c3nc(-c4ccc(C(N)=O)cc4OC(F)(F)F)n(C)c3C3CC3)cccc2n1 [Example 16, 4-{5-cyclopropyl-4-[2-(1-cyclopropyl-3-methoxy-1H-pyrazol-4-yl)-2H-indazol-4-yl]-1-methyl-1H-imidazol-2-yl}-3-(trifluoromethoxy)benzamide] the “DSF ΔTm (K)” value was 32 K. CCP(=O)(CC)c1ccc(-c2nc(-c3cccc4nn(-c5cc(C(F)(F)F)n(C)n5)cc34)c(C3CC3)n2C)c(OC(F)(F)F)c1 [Example 17, 4-{5-cyclopropyl-2-[4-(diethylphosphoryl)-2-(trifluoromethoxy)phenyl]-1-methyl-1H-imidazol-4-yl}-2-[1-methyl-5-(trifluoromethyl)-1H-pyrazol-3-yl]-2H-indazole] was tested, and the “DSF ΔTm (K)” value was 29 K. CC[P@](C)(=O)c1ccc(-c2nc(-c3cccc4[nH]c(-c5cc(C(F)(F)F)n(C)n5)nc34)c(C3CC3)n2C)c(OC(F)(F)F)c1 [Example 18, 4-(5-cyclopropyl-2-{4-[(S)-ethyl(methyl)phosphoryl]-2-(trifluoromethoxy)phenyl}-1-methyl-1H-imidazol-4-yl)-2-[1-methyl-5-(trifluoromethyl)-1H-pyrazol-3-yl]-1H-1,3-benzodiazole] was tested, and the “DSF ΔTm (K)” value was 34 K. For CC[P@](C)(=O)c1ccc(-c2nc(-c3cccc4nn(-c5cc(C6CC6)n(C)n5)cc34)c(C3CC3)n2C)c(OC(F)(F)F)c1 [Example 19, 2-(5-cyclopropyl-1-methyl-1H-pyrazol-3-yl)-4-(5-cyclopropyl-2-{4-[(S)-ethyl(methyl)phosphoryl]-2-(trifluoromethoxy)phenyl}-1-methyl-1H-imidazol-4-yl)-2H-indazole], the “DSF ΔTm (K)” value was 28 K. For Cn1nc(-n2cc3c(-c4nc(-c5ccc(P(C)(C)=O)cc5OC(F)(F)F)n(C)c4C4CC4)cccc3n2)cc1C(F)(F)F [Example 20, 4-{5-cyclopropyl-2-[4-(dimethylphosphoryl)-2-(trifluoromethoxy)phenyl]-1-methyl-1H-imidazol-4-yl}-2-[1-methyl-5-(trifluoromethyl)-1H-pyrazol-3-yl]-2H-indazole], the “DSF ΔTm (K)” value was 30 K.
